Assay results from article PMC9266350, “Searching for a Paradigm Shift in Auger-Electron Cancer Therapy with Tumor-Specific Radiopeptides Targeting the Mitochondria and/or the Cell Nucleus” (International Journal of Molecular Sciences, 2022).
Where a SMILES comes first, the peptide text is derived from it. Where no end group is shown, it is not given here. The star is where a group is joined. X1 = Cc1nn(CCN(CCN)CCCC(=O)NCCC[n+]2c3cc(N(C)C)ccc3cc3ccc(N(C)C)cc32)c(C)c1CC(=O)*; pyrazolyl‑diamine chelator carrying TPP = not defined here

Experiments:
PC3 cells [1] = experiment: Confocal fluorescence microscopy colocalization with MitoTracker; type: cell-based, human; settings: 1 µM, 30 min with MitoTracker Deep Red FM, fixed
Description: To study the intracellular location of uptaken Re-AO-BBN, cells were washed with PBS, incubated with MitoTracker™ Deep Red FM (1:1000, Invitrogen, Bleiswijk, The Netherlands) and Re-AO-BBN (1 µM) in FluoroBrite™ DMEM with high D-glucose for 30 min, fixed with 4% paraformaldehyde (in PBS) at 4 °C for 20 min, washed with PBS, incubated with Hoechst (0.2 µg/mL) for 1 h, washed and left submerged in PBS. Cells were imaged on a Leica TCS SP8 confocal microscope, equipped with a HC Plan Apo 20 × /0.75 dry objective, 405, 488 and 638 nm laser lines, PMT (MitoTracker) and HyD (Hoechst, Re-AO-BBN) detectors. The pinhole was set to 1 airy unit and Nyquist sampling was met in xyz (132 × 132 × 685 nm). Mitochondria accumulation was assessed by the Pearson coefficient between Re-AO-BBN and MitoTracker fluorescence intensities, considering an appropriate threshold.

PC3 cells [2] = experiment: Clonogenic assay; type: cell-based, human; settings: highest concentration 10^−7 M (range 10^−10–10^−7 M), 24 h at 37 °C
Description: PC3 cells were seeded at a density of 50000 cells per well in a 24 well-plate and allowed to attach overnight. […] Immediately, after incubation, cells were seeded out in appropriate dilution to form colonies, in 2 weeks, with at least 50 cells. Colonies were fixed with methanol: glacial acetic acid (3:1) and stained with Giemsa (4%).
The Plating Efficiency (PE), ratio of the number of colonies to the number of cells seeded, and the Survival Fraction (SF), number of colonies that arise after treatment of cells, expressed in terms of PE, were obtained following the methodology described in [66], where:(1) PE=number of colonies formed /number of cells seeded×100% (2) SF=number of colonies formed after treatment/number of cells seeded×PE

PC3 cells [3] = experiment: γ-H2AX assay and foci analysis; type: cell-based, human; settings: 1.85 MBq, 24 h at 37 °C
Description: PC3 cells were seeded at a density of 10000 cells per well in an eight-well chamber slide and allowed to attach overnight. […] PC3 cells were washed three times with PBS, and fixed with 4% formaldehyde in PBS for 15 min. After washing with PBS, cells were permeabilized with Triton X-100 (0.5%) at room temperature for 5 min followed by two washing steps with 1% BSA in PBS. Then, cells were incubated with an anti-γ-H2AX primary antibody (mouse anti-γ-H2AX (ser139), Stressgen) at 2 μg/mL for 1 h. After being washed twice with 1% BSA in PBS, cells were incubated with a Texas Red-X-conjugated anti-mouse secondary antibody at […] for 1 h, followed by three washing steps with PBS. Cells were finally mounted in anti-fade mounting media with DAPI (Vectashield H-1200, Vector Laboratories).
Cells were analyzed under 64x magnification. Several high-quality 2D images were randomly collected in each slide and analyzed using the pipeline Speckle Count from the freeware CellProfiler. At least 200 nuclei were analyzed per experiment per dose. Statistical analysis was performed with Origin 7.5 software.

human GRPR = target: T1, human GRPR (Homo sapiens, UniProt P30550); experiment: Competitive radioligand binding assay against [125I-Tyr4]-BBN; settings: PC3 cells, 90 min at 4 °C, one-site model, mean ± SEM of three independent experiments; read-out: IC50, displacement of [125I-Tyr4]-BBN from GRPR
T1 construct: endogenous in cells; host or cells: PC3 human prostate carcinoma cells (intact, attached)
T1 sequence (P30550 whole entry): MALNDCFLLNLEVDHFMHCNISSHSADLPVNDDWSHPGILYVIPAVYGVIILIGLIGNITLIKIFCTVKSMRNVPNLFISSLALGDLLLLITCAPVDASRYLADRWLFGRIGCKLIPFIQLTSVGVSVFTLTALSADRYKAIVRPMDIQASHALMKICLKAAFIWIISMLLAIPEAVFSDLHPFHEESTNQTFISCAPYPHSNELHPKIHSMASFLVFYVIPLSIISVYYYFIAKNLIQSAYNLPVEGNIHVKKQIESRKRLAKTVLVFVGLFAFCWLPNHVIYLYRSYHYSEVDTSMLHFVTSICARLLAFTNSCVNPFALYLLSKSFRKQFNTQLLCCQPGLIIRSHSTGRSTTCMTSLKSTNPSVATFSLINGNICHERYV
Description: The in vitro cell-binding assays were performed with the prostate carcinoma cell line PC3. Briefly, cells were seeded in 24-well plates (150,000 cells per well) and allowed to attach overnight. […] The competition was interrupted by discarding supernatants and washing the cells twice with ice-cold PBS with 0.2% BSA. Cells were then lysed with 1 M NaOH treatment (2 × 0.4 mL, 10 min at 37 °C). Lysates were collected and counted for their radioactivity content in an automated γ–counter (HIDEX AMG, Hidex, Turku, Finland).

PC3 cells [4] = experiment: Mitochondrial ToxGlo assay (cell membrane integrity and cellular ATP levels); settings: 2 h at 37 °C, HBSS with galactose and 1% BSA, CCCP 10 μM
Description: PC3 cells were seeded at a density of 10,000 cells per well in a 96 well-plate and allowed to attach overnight. […] Cells incubated only with this medium were used as a basal control and cells incubated with CCCP (10 μM) as a positive control for mitochondrial inhibition. After the 2 h, the Mitochondrial Toxglo assay was performed according to the manufacturer’s instructions (Promega). Assays were performed in triplicate.

CSCC[C@H](NC(=O)[C@H](CC(C)C)NC(=O)[C@H](Cc1c[nH]cn1)NC(=O)CNC(=O)[C@@H](NC(=O)[C@H](C)NC(=O)[C@H](Cc1c[nH]c2ccccc12)NC(=O)[C@H](CCC(N)=O)NC(=O)CNC(=O)CNC(=O)CNC(=O)Cc1c(C)nn(CCN(CCN)CCCC(=O)NCCC[n+]2c3cc(N(C)C)ccc3cc3ccc(N(C)C)cc32)c1C)C(C)C)C(N)=O [Re-AO-BBN] (X1-GGGQWAVGHLM-NH2; C-terminus assumed)
Pearson's Correlation Coefficient (PCC) of colocalization with Mitotracker dye (PC3 cells [1]): 0.31
effect on survival of PC3 cells compared with the control (PC3 cells [2]): no effect

[O]=[99Tc](=[O])(=[O])[O-] [^99mTcO4^−]
foci number / DNA damage relative to the control (in words) (PC3 cells [3]): did not cause any increase

Re-TPP-BBN: Re(I) congener of 99mTc-TPP-BBN, surrogate of the 99mTc complex ({pyrazolyl‑diamine chelator carrying TPP}-GGGQWAVGHLM; ends and bridges not checked; also: Re(I) complex of the chelator)
IC50 (human GRPR): 0.38 ± 0.14 nM

cyanide-m-chlorophenylhydrazone [CCCP]
cell membrane integrity / viability versus control (PC3 cells [4]; radiocomplexes 0.74 and 1.85 MBq (loss at the highest activity)): did not compromise their viability
ATP production / ATP levels versus control cells (PC3 cells [4]; radiocomplexes 0.74 and 1.85 MBq): significantly reduced the ATP production
